{"source": "patent US20230338395A1", "about": "“PROPHYLAXIS AND TREATMENT OF CORONAVIRUS INFECTION” (priority 2020, published 2023)", "key": {"SARS-CoV-2": {"test_system": "SARS-CoV-2", "assay": "Pulmonary inflammation after SARS-CoV-2 challenge in MRL-Fas lpr mice", "type": "in vivo", "conditions": "40 mg/kg/day intraperitoneal from around day 15 after viral clearance, lungs inspected at day 40 post infection"}, "COVID-19": {"test_system": "COVID-19", "conditions": "severely ill COVID-19 patients; cited from earlier work"}, "tlr7 gene expression": {"test_system": "tlr7 gene expression", "conditions": "SLE-patients; cited from earlier work"}, "SARS-CoV-1": {"test_system": "SARS-CoV-1", "parameters": "species or system mice", "conditions": "mouse, in vivo"}, "classical swine fever": {"test_system": "classical swine fever", "parameters": "species or system pigs", "conditions": "pig, in vivo, 0.1 mg/kg"}, "[1]": {"test_system": "lethal respiratory virus infections", "conditions": "aged mice, intranasal treatment; cited from earlier work"}}, "data": [{"molecule": "CCN(CCO)CCCC(C)Nc1ccnc2cc(Cl)ccc12", "note": "(stereo not shown) [hydroxychloroquine]", "values": [{"measurement": "severity of pulmonary inflammation (score 0-4)", "setting": "SARS-CoV-2", "value": "improved"}]}, {"molecule": "C=C1CC[C@H](O)C/C1=C/C=C1\\CCC[C@]2(C)[C@@H]([C@H](C)CCCC(C)C)CC[C@@H]12", "note": "[vitamin D3]", "values": [{"measurement": "protection from thrombosis and embolism", "setting": "COVID-19", "value": "protect severely ill COVID-19 patients from thrombosis and embolism"}, {"measurement": "tlr7 gene expression", "setting": "tlr7 gene expression", "value": "down-regulating tlr7 gene expression"}]}, {"molecule": "Polyinosinic:polycytidylic acid [poly(IC)]", "values": [{"measurement": "protection compared with the other tlr agonists", "setting": "SARS-CoV-1", "value": "most protective"}, {"measurement": "survival", "setting": "SARS-CoV-1", "value": "increase survival"}, {"measurement": "infection fatality rate", "setting": "classical swine fever", "value": "lower than the infection fatality rate of the untreated subpopulation"}, {"measurement": "protection from lethal respiratory virus infections", "setting": "[1]", "value": "protects aged mice from lethal respiratory virus infections"}]}]}
